Source: PubChem BioAssay (NCI)
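96-well plates; 48 h exposure; 5 concentrations. Endpoints by linear interpolation between flanking doses. Not reached: highest tested concentration assigned. TGI denotes the concentration required for complete inhibition of growth.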

Key:
Assay in all cases: inhibition of tumour cell growth, NCI panel, 48 h
[1] = tested on: U251 CNS
[2] = tested on: SNB-75 CNS
[3] = tested on: SF-268 CNS
[4] = tested on: EKVX NSCLC
[5] = tested on: TK-10 renal
[6] = tested on: HT29 colon
[7] = tested on: MDA-N
[8] = tested on: SF-295 CNS
[9] = tested on: UACC-62 melanoma
[10] = tested on: IGROV1 ovarian
[11] = tested on: A549 NSCLC
[12] = tested on: KM12 colon
[13] = tested on: SK-MEL-5 melanoma
[14] = tested on: RXF 393 renal
[15] = tested on: M14 melanoma
[16] = tested on: K-562 leukemia
[17] = tested on: LOX IMVI melanoma
[18] = tested on: RPMI-8226 leukemia
[19] = tested on: OVCAR-4 ovarian
[20] = tested on: COLO 205 colon
[21] = tested on: SK-MEL-28 melanoma
[22] = tested on: MDA-MB-435
[23] = tested on: MOLT-4 leukemia
[24] = tested on: HOP-92 NSCLC
[25] = tested on: SK-MEL-2 melanoma
[26] = tested on: HS 578T breast
[27] = tested on: MDA-MB-231 breast
[28] = tested on: HCT-15 colon
[29] = tested on: OVCAR-5 ovarian
[30] = tested on: HOP-62 NSCLC
[31] = tested on: T-47D breast
[32] = tested on: MALME-3M melanoma
[33] = tested on: CCRF-CEM leukemia
[34] = tested on: MCF7 breast
[35] = tested on: NCI/ADR-RES ovarian
[36] = tested on: NCI-H522 lung
[37] = tested on: SNB-19 CNS
[38] = tested on: SN12C renal
[39] = tested on: UACC-257 melanoma
[40] = tested on: SW-620 colon
[41] = tested on: NCI-H226 lung
[42] = tested on: OVCAR-8 ovarian
[43] = tested on: BT-549 breast
[44] = tested on: ACHN renal
[45] = tested on: CAKI-1 renal
[46] = tested on: OVCAR-3 ovarian
[47] = tested on: A498 renal
[48] = tested on: 786-0 renal
[49] = tested on: PC-3 prostate
[50] = tested on: NCI-H460 lung
[51] = tested on: NCI-H23 lung
[52] = tested on: SF-539 CNS
[53] = tested on: DU-145 prostate
[54] = tested on: HCT-116 colon
[55] = tested on: SK-OV-3 ovarian
[56] = tested on: HL-60(TB) leukemia
[57] = tested on: UO-31 renal
[58] = tested on: HCC-2998 colon

Measured: TGI

CN1CCc2c(sc3ncn(Nc4ccc(Cl)cc4)c(=N)c23)C1
> 100 µM: [1] | [2] | [3] | [4] | [5] | [6] | [7] | [8] | [9] | [10] | [11] | [12] | [13] | [14] | [15] | [16] | [17] | [18] | [19] | [20] | [21] | [22] | [23] | [24] | [25] | [26] | [27] | [28] | [29] | [30] | [31] | [32] | [33] | [34] | [35] | [36] | [37] | [38] | [39] | [40] | [41] | [42] | [43] | [44] | [45] | [46] | [47] | [48] | [49] | [50] | [51] | [52] | [53] | [54] | [55] | [56]

CC(C(=O)c1ccncc1)c1ccccn1 (stereo unspecified)
> 100 µM: [1] | [3] | [4] | [5] | [6] | [7] | [8] | [9] | [10] | [11] | [12] | [13] | [14] | [15] | [16] | [17] | [18] | [19] | [20] | [21] | [22] | [24] | [25] | [26] | [27] | [28] | [29] | [30] | [57] | [31] | [32] | [33] | [34] | [35] | [36] | [37] | [38] | [39] | [40] | [41] | [42] | [43] | [44] | [45] | [46] | [47] | [48] | [49] | [50] | [51] | [58] | [53] | [54] | [55] | [56]
